Laboratory results from patent US9265787B2, “Combined inhibition of the vitamin D receptor and DNA replication in the treatment of cancer” (Institute for Cancer Research, priority 2011, dated 2016).

What was measured:
Type in all cases: cell-based
Panc1 cells [1] = assay: CellTiter-Glo viability assay with VDR short hairpin RNA and gemcitabine
BXPC3 cells [2] = assay: as above
BXPC3 cells [3] = assay: Clonogenic assay with VDR antagonist TEI-9647 and gemcitabine
Protocol: Note sensitization at 2 μM of TEI-9647. The average of 3 independent experiments is shown.
(§1) TEI-9647 alone killed cells, consistent with reduced clonogenic survival by VDR siRNA alone. Clonogenic assays were performed using several different doses of the inhibitor compound to compare clonogenic survival to assays described above using VDR siRNAs and shRNAs. The clonogenic assays were performed as described above. The TEI-9647 compound was added prior to gemcitabine addition, consistent with the timing of the siRNA treatments described above. Cells were treated with inhibitor for 48 hours followed by gemcitabine treatment for 48 hours and allowed to form colonies for 10-12 days. Survival was then quantified by staining and destaining of subsequent colonies with crystal violet and reading the resultant destain at wavelength 595 nm.

Panc1 cells [4] = assay: as above; settings: data not shown
Protocol: as §1

BXPC3shVDR cells = assay: Drug survival of BXPC3 cells stably depleted of VDR (rescue experiments)
Panc1:gfpH2B cells = assay: Time-lapse videomicroscopy of cell fates with siRNAs/drugs and gemcitabine
From the text: FIGS. 5A-5C show time lapse videomicroscopy tracking the fates of Panc1:gfpH2B cells treated with various combinations of siRNAs and drugs.
White arrows show mitotic cells in Chk1 depleted cells. Other rounded cells are apoptotic.
The fate of Panc1:gfpH2B cells treated with various combinations of siRNA and gemcitabine was tracked with time-lapse videomicroscopy (FIG. 5A). […] Cells were transfected with indicated siRNAs, and synchronized at the G1/S boundary. Time-lapse was started upon release from the G1/S block and continued for the next 48 hours. Select frames from the movies (0, 12, 24 and 48 hours) are shown.
A comparison of cells treated with gemcitabine in the presence and absence of UCN01, an inhibitor of the Chk1 DNA damage response kinase was carried out (FIG. 5A).
The percentage of cell death was quantified (FIG. 5C).
The mechanism of chemosensitization by inhibiting VDR was investigated, and it was determined that this mechanism is different from overriding the DNA damage checkpoint pathway through Chk1 inhibition (FIG. 6A). […] Chk1 was depleted by using siRNAs targeted to the Chk1 transcript from the Dharmacon smartPOOL siRNA library. The siRNAs included the sequence […] (SEQ ID NO:8), […] (SEQ ID NO:9), […] (SEQ ID NO:10), and […] (SEQ ID NO:11).
Loss of VDR promotes apoptosis of gemcitabine-treated cells through a different pathway than that which is used after Chk1 inhibition. […]

BXPC3 cells [5] = assay: Clonogenic survival after siRNA transfection and 18 h gemcitabine; settings: VDR siRNA-transfected BXPC3 cells, gemcitabine 18 hours, colonies after eight days
Protocol: (§2) Clonogenic survival of BXPC3 cells transfected with indicated siRNAs and treated with drug or vehicle. Plk1 siRNA is positive control for killing. […] Panc 1 cells transfected with VDR siRNA are also included.
(§3) Cells were transfected with siRNA, treated with gemcitabine for 18 hours, then seeded. Surviving colonies were quantitated eight days later.

Panc1 cells [6] = assay: as above; settings: VDR siRNA-transfected Panc 1 cells, gemcitabine 18 hours, colonies after eight days
Protocol: as §2, §3

Panc1 cells [7] = assay: Immunofluorescence staining for DNA damage response proteins; settings: gemcitabine-treated compared to vehicle treated cells
From the text: Immunofluorescence staining for DNA damage response proteins, TAO1, 53BP1, and γ-H2AX of gemcitabine treated Panc1 cells transfected with control or VDR siRNA.

[8] = system: BXPC3 cells stably expressing gfpH2B; assay: Time-lapse microscopy of BXPC3 cells stably expressing gfpH2B (preliminary experiments); settings: S phase by FACS
From the text: VDR is known to induce transcription of the Cdk inhibitor, p21, and this is one of the reasons used to explain the anti-proliferative activity of vitamin D. As p21 is also activated by DNA damage, it is possible that VDR contributes to the cell cycle checkpoint arrest induced by gemcitabine. This will be directly tested by time-lapse microscopy of synchronized cells after depletion of VDR and treatment with gemcitabine.

Panc1 cells [9] = assay: Effect of the sublethal screening dose of gemcitabine (phospho-H2AX foci, cell cycle arrest); settings: sublethal dose (IC20)

Compound: VDR shRNA: VDR short hairpin RNA (clone ID TRCN000019504), sequence CGAAGUGUUUGGCAAUGAGAU (SEQ ID NO: 7) (listed as Homo sapiens)
- sensitization to killing by gemcitabine (viability) (Panc1 cells [1]): sensitized both cell lines to killing by gemcitabine
- sensitization to killing by gemcitabine (viability) (BXPC3 cells [2]): sensitized both cell lines to killing by gemcitabine

Compound: C=C1C[C@H](C[C@@H](C)[C@H]2CC[C@H]3/C(=C/C=C4/C[C@@H](O)C[C@H](O)C4=C)CCC[C@]23C)OC1=O [TEI-9647]
- sensitization to gemcitabine (clonogenic survival) (BXPC3 cells [3]; TEI-9647 added prior to gemcitabine): sensitize both BXPC3 and Panc1 cells to gemcitabine
- TEI-9647 concentration at which sensitization is noted (BXPC3 cells [3]; with gemcitabine, average of 3 independent experiments): 2 µM
- effect of TEI-9647 alone on clonogenic survival (BXPC3 cells [3]; without gemcitabine): killed cells
- sensitization to gemcitabine (clonogenic survival) (Panc1 cells [4]): sensitize both BXPC3 and Panc1 cells to gemcitabine

Compound: CC(=O)O[C@H]1C(=O)[C@@]2(C)[C@H]([C@H](OC(=O)c3ccccc3)[C@]3(O)C[C@H](OC(=O)[C@H](O)[C@@H](NC(=O)c4ccccc4)c4ccccc4)C(C)=C1C3(C)C)[C@]1(OC(C)=O)CO[C@@H]1C[C@@H]2O [taxol]
- effect of VDR status on killing by taxol (BXPC3shVDR cells; two concentrations of taxol, BXPC3 parental, shVDR and rescued cells): did not affect killing

Compound: CN[C@@H]1C[C@H]2O[C@@](C)([C@@H]1OC)n1c3ccccc3c3c4c(c5c6ccccc6n2c5c31)C(=O)N[C@@H]4O [UCN01]
- fate of gemcitabine-treated cells (mitotic entry, phase of death) (Panc1:gfpH2B cells; 48 hour time-lapse after release from G1/S block): promoted cells to first enter mitosis (arrows) which then caused cell death
- cell number at 48 hour versus 0 hour (Panc1:gfpH2B cells; gemcitabine-treated cells with UCN01, phase contrast images): reduced cell number

Compound: Nc1ccn([C@@H]2O[C@H](CO)[C@@H](O)C2(F)F)c(=O)n1 [gemcitabine, Gemcitabine]
- further reduction of survival by gemcitabine (BXPC3 cells [5]): > 85%
- further reduction of survival by gemcitabine (Panc1 cells [6]): > 85%
- survival of BXPC3shVDR cells carrying the C288G VDR mutant (BXPC3shVDR cells; 50 nM, compared to the same cells rescued by wild type VDR): killed
- phospho-H2AX and 53BP1 staining in nuclei (Panc1 cells [7]): increased
- duration of arrest in interphase after gemcitabine treatment [8]: up to 48 hours
- DNA damage and cell cycle arrest at the screening dose (Panc1 cells [9]): sufficient to induce DNA damage
